# Molecular target: T1, NLRP3 (Homo sapiens, UniProt Q96P20)
# T1 construct: host or cells: THP-1 cells differentiated with PMA
# Assay: IL-1β Secretion Assay (NLRP3-dependent IL1β secretion in THP1 cells)
# Assay type: cell-based
# Conditions: PMA-differentiated THP-1 cells; compounds incubated 20 h; 2.5 μM Nigericin 3 h; HTRF IL-1β readout; read-out: IC50 IL-1β Inhibition
# Outline: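 THP-1 cells differentiated with 100 ng/mL PMA for 24 h, then given compound (7-point 3-fold series, 1:200 from DMSO) for 20 h in RPMI+5% FBS. NLRP3 activated with 2.5 μM nigericin for 3 h; secreted IL-1β measured by HTRF; IC50 from logistic fit of % inhibition.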
# T1 sequence (Q96P20 whole entry): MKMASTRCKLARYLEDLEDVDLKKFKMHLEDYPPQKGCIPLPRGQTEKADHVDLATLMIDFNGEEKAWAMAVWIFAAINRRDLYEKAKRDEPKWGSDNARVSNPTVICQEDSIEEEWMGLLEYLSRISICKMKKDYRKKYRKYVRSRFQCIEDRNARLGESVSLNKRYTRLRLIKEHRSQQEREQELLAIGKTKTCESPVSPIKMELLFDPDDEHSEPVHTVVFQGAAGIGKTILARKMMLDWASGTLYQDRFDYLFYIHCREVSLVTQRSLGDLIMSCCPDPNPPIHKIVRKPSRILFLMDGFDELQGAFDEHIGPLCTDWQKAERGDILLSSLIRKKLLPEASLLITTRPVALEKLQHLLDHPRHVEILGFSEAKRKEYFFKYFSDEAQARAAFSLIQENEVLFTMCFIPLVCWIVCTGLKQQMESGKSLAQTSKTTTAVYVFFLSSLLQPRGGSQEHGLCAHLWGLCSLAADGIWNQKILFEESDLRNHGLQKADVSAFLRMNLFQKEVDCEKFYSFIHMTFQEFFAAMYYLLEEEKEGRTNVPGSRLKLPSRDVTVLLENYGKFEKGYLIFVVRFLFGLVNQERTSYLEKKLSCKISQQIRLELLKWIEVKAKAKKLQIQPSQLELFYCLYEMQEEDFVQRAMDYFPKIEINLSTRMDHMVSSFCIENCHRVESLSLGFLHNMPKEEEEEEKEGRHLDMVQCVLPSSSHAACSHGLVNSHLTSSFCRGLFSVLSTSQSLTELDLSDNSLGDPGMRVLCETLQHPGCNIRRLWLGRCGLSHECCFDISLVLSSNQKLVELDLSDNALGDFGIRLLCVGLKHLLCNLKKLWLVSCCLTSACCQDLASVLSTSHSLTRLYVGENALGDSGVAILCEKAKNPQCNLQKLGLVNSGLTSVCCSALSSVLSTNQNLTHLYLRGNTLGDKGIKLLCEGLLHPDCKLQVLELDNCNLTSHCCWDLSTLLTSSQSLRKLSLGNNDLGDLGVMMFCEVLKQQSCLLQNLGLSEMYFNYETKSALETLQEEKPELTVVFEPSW
row,Structure (SMILES),IC50
1,"COc1ccc(-c2nnc(N[C@@H]3CCOC[C@H]3O)n3cncc23)c(OC(F)(F)F)c1 [Compound 292, (3S,4R)-4-({1-[4-methoxy-2-(trifluoromethoxy)phenyl]imidazo[1,5-d][1,2,4]triazin-4-yl}amino)oxan-3-ol]",10 to 100 nM
2,"O[C@H]1CCCC[C@@H]1Nc1nnc(-c2ccc(C(F)(F)F)cc2C(F)(F)F)c2cncn12 [Compound 293, (1S,2S)-2-({1-[2,4-bis(trifluoromethyl)phenyl]imidazo[1,5-d][1,2,4]triazin-4-yl}amino)cyclohexan-1-ol]",10 to 100 nM
3,"O=C1NCCC1Nc1nnc(-c2ccc(C(F)(F)F)cc2C(F)(F)F)c2cncn12 (stereo not drawn) [Compound 294, 3-({1-[2,4-bis(trifluoromethyl)phenyl]imidazo[1,5-d][1,2,4]triazin-4-yl}amino)pyrrolidin-2-one]",1 to 10 nM
4,"CN1CCC[C@@H](Nc2nnc(-c3ccc(OC(F)F)cc3OC(F)(F)F)c3cncn23)C1 [Compound 295, 1-[4-(difluoromethoxy)-2-(trifluoromethoxy)phenyl]-N-[(3R)-1-methylpiperidin-3-yl]imidazo[1,5-d][1,2,4]triazin-4-amine]",< 1 nM
5,"FC(F)Oc1ccc(-c2nnc(Nc3cc[nH]n3)n3cncc23)c(OC(F)(F)F)c1 [Compound 296, 1-[4-(difluoromethoxy)-2-(trifluoromethoxy)phenyl]-N-(1H-pyrazol-3-yl)imidazo[1,5-d][1,2,4]triazin-4-amine]",10 to 100 nM
6,"Cc1ccc(-c2nnc(NC(C)c3cccc(O)c3)n3cncc23)c(CC(F)(F)F)c1 (stereo not drawn) [Compound 297, 3-[1-({1-[4-methyl-2-(2,2,2-trifluoroethyl)phenyl]imidazo[1,5-d][1,2,4]triazin-4-yl}amino)ethyl]phenol]",1 to 10 nM
7,"C[C@]1(O)C[C@@H](Nc2nnc(-c3ccc(Cl)cc3C(F)(F)F)c3cncn23)C1 [Compound 298, (1s,3s)-3-({1-[4-chloro-2-(trifluoromethyl)phenyl]imidazo[1,5-d][1,2,4]triazin-4-yl}amino)-1-methylcyclobutan-1-ol]",1 to 10 nM
8,"C[C@]1(O)C[C@@H](Nc2nnc(-c3ccc(Cl)cc3OC(F)(F)F)c3cncn23)C1 [Compound 299, (1s,3s)-3-({1-[4-chloro-2-(trifluoromethoxy)phenyl]imidazo[1,5-d][1,2,4]triazin-4-yl}amino)-1-methylcyclobutan-1-ol]",1 to 10 nM
9,"O[C@@H]1CCCC[C@H]1Nc1nnc(-c2ccc(Cl)cc2OC(F)(F)F)c2cncn12 [Compound 300, (1R,2R)-2-({1-[4-chloro-2-(trifluoromethoxy)phenyl]imidazo[1,5-d][1,2,4]triazin-4-yl}amino)cyclohexan-1-ol]",1 to 10 nM
10,OCCN1CCC[C@@H](Nc2nnc(-c3ccc(C(F)(F)F)cc3CC(F)(F)F)c3cncn23)C1 [Compound 301],< 1 nM
11,"COc1ccc(-c2nnc(N[C@@H]3CCC[C@H](O)C3)n3cncc23)c(CC(F)(F)F)c1 [Compound 302, (1S,3R)-3-({1-[4-methoxy-2-(2,2,2-trifluoroethyl)phenyl]imidazo[1,5-d][1,2,4]triazin-4-yl}amino)cyclohexan-1-ol]",1 to 10 nM
12,"COc1ccc(-c2nnc(NC(C)c3cccc(O)c3)n3cncc23)c(CC(F)(F)F)c1 (stereo not drawn) [Compound 303, 3-[1-({1-[4-methoxy-2-(2,2,2-trifluoroethyl)phenyl]imidazo[1,5-d][1,2,4]triazin-4-yl}amino)ethyl]phenol]",< 1 nM
13,"COc1ccc(-c2nnc(N[C@@H]3CCCN(C)C3)n3cncc23)c(OCC(F)(F)F)c1 [Compound 304, 1-[4-methoxy-2-(2,2,2-trifluoroethoxy)phenyl]-N-[(3R)-1-methylpiperidin-3-yl]imidazo[1,5-d][1,2,4]triazin-4-amine]",1 to 10 nM
14,"COc1ccc(-c2nnc(N[C@H]3C[C@@](C)(O)C3)n3cncc23)c(OCC(F)(F)F)c1 [Compound 305, (1s,3s)-3-({1-[4-methoxy-2-(2,2,2-trifluoroethoxy)phenyl]imidazo[1,5-d][1,2,4]triazin-4-yl}amino)-1-methylcyclobutan-1-ol]",10 to 100 nM
15,"O[C@@H]1CCCC[C@H]1Nc1nnc(-c2ccc(Br)cc2OC(F)F)c2cncn12 [Compound 306, (1R,2R)-2-({1-[4-bromo-2-(difluoromethoxy)phenyl]imidazo[1,5-d][1,2,4]triazin-4-yl}amino)cyclohexan-1-ol]",1 to 10 nM
16,"O[C@@H]1CCCC[C@H]1Nc1nnc(-c2ccc(Br)cc2OC(F)(F)F)c2cncn12 [Compound 307, (1R,2R)-2-({1-[4-bromo-2-(trifluoromethoxy)phenyl]imidazo[1,5-d][1,2,4]triazin-4-yl}amino)cyclohexan-1-ol]",1 to 10 nM
17,"CN1CCC[C@@H](Nc2nnc(-c3ccc(Br)cc3OC(F)(F)F)c3cncn23)C1 [Compound 312, 1-[4-bromo-2-(trifluoromethoxy)phenyl]-N-[(3R)-1-methylpiperidin-3-yl]imidazo[1,5-d][1,2,4]triazin-4-amine]",< 1 nM

row,Structure (SMILES),IC50
1,"O[C@@H]1COCC[C@H]1Nc1nnc(-c2ccc(C(F)(F)F)cc2CC(F)(F)F)c2cncn12 [Compound 313, (3S,4R)-4-({1-[2-(2,2,2-trifluoroethyl)-4-(trifluoromethyl)phenyl]imidazo[1,5-d][1,2,4]triazin-4-yl}amino)oxan-3-ol]",1 to 10 nM
2,"COc1ccc(-c2nnc(N[C@H]3C[C@@H](CO)C3)n3cncc23)c(CC(F)(F)F)c1 [Compound 314, [(1s,3s)-3-({1-[4-methoxy-2-(2,2,2-trifluoroethyl)phenyl]imidazo[1,5-d][1,2,4]triazin-4-yl}amino)cyclobutyl]methanol]",1 to 10 nM
3,"COc1ccc(-c2nnc(N[C@H]3C[C@@](C)(O)C3)n3cncc23)c(C(F)(F)C(F)(F)F)c1 [Compound 315, (1s,3s)-3-({1-[4-methoxy-2-(pentafluoroethyl)phenyl]imidazo[1,5-d][1,2,4]triazin-4-yl}amino)-1-methylcyclobutan-1-ol]",100 to 300 nM
4,"COc1ccc(-c2nnc(N[C@@H]3CCCC[C@H]3O)n3cncc23)c(C(F)(F)C(F)(F)F)c1 [Compound 316, (1R,2R)-2-({1-[4-methoxy-2-(pentafluoroethyl)phenyl]imidazo[1,5-d][1,2,4]triazin-4-yl}amino)cyclohexan-1-ol]",10 to 100 nM
5,"Cc1ccc(-c2nnc(N[C@@H]3CCCN(C)C3)n3cncc23)c(CC(F)(F)F)c1 [Compound 317, N-[(3R)-1-methylpiperidin-3-yl]-1-[4-methyl-2-(2,2,2-trifluoroethyl)phenyl]imidazo[1,5-d][1,2,4]triazin-4-amine]",1 to 10 nM
6,"Cc1ccc(-c2nnc(N[C@H]3C[C@@](C)(O)C3)n3cncc23)c(CC(F)(F)F)c1 [Compound 318, (1s,3s)-1-methyl-3-({1-[4-methyl-2-(2,2,2-trifluoroethyl)phenyl]imidazo[1,5-d][1,2,4]triazin-4-yl}amino)cyclobutan-1-ol]",1 to 10 nM
7,"COc1ccc(-c2nnc(N[C@H]3C[C@@](C)(O)C3)n3cncc23)c(C2CC2)c1 [Compound 319, (1s,3s)-3-{[1-(2-cyclopropyl-4-methoxyphenyl)imidazo[1,5-d][1,2,4]triazin-4-yl]amino}-1-methylcyclobutan-1-ol]",10 to 100 nM
8,"COc1ccc(-c2nnc(NC3CCNC3=O)n3cncc23)c(C2CC2)c1 (stereo not drawn) [Compound 320, 3-{[1-(2-cyclopropyl-4-methoxyphenyl)imidazo[1,5-d][1,2,4]triazin-4-yl]amino}pyrrolidin-2-one]",10 to 100 nM
9,"COc1ccc(-c2nnc(N[C@@H]3CCCC[C@H]3O)n3cncc23)c(C2CC2)c1 [Compound 321, (1R,2R)-2-{[1-(2-cyclopropyl-4-methoxyphenyl)imidazo[1,5-d][1,2,4]triazin-4-yl]amino}cyclohexan-1-ol]",10 to 100 nM
10,"O[C@@H]1COCC[C@H]1Nc1nnc(-c2ccc(C(F)(F)F)cc2OC(F)(F)F)c2cncn12 [Compound 322, (3S,4R)-4-({1-[2-(trifluoromethoxy)-4-(trifluoromethyl)phenyl]imidazo[1,5-d][1,2,4]triazin-4-yl}amino)oxan-3-ol]",10 to 100 nM
11,"CC(Nc1nnc(-c2ccc(C(F)(F)F)cc2OC(F)(F)F)c2cncn12)c1cccc(O)c1 (stereo not drawn) [Compound 323, 3-[1-({1-[2-(trifluoromethoxy)-4-(trifluoromethyl)phenyl]imidazo[1,5-d][1,2,4]triazin-4-yl}amino)ethyl]phenol]",1 to 10 nM
12,"COCC1CC(Nc2nnc(-c3ccc(C(F)(F)F)cc3OC(F)(F)F)c3cncn23)C1 (stereo not drawn) [Compound 324, N-[3-(methoxymethyl)cyclobutyl]-1-[2-(trifluoromethoxy)-4-(trifluoromethyl)phenyl]imidazo[1,5-d][1,2,4]triazin-4-amine]",10 to 100 nM
13,"CC(C)(O)C1CC(Nc2nnc(-c3ccc(C(F)(F)F)cc3OC(F)(F)F)c3cncn23)C1 (stereo not drawn) [Compound 325, 2-[3-({1-[2-(trifluoromethoxy)-4-(trifluoromethyl)phenyl]imidazo[1,5-d][1,2,4]triazin-4-yl}amino)cyclobutyl]propan-2-ol]",10 to 100 nM
14,"COCC1CC(Nc2nnc(-c3ccc(OC)cc3CC(F)(F)F)c3cncn23)C1 (stereo not drawn) [Compound 326, N-[3-(methoxymethyl)cyclobutyl]-1-[4-methoxy-2-(2,2,2-trifluoroethyl)phenyl]imidazo[1,5-d][1,2,4]triazin-4-amine]",10 to 100 nM
15,"COc1ccc(-c2nnc(NC3CC(C(C)(C)O)C3)n3cncc23)c(CC(F)(F)F)c1 (stereo not drawn) [Compound 327, 2-[3-({1-[4-methoxy-2-(2,2,2-trifluoroethyl)phenyl]imidazo[1,5-d][1,2,4]triazin-4-yl}amino)cyclobutyl]propan-2-ol]",10 to 100 nM
16,"CN1CCCC(Nc2nnc(-c3ccc(OC(F)F)cc3OC(F)(F)F)c3cncn23)C1=O (stereo not drawn) [Compound 328, 3-({1-[4-(difluoromethoxy)-2-(trifluoromethoxy)phenyl]imidazo[1,5-d][1,2,4]triazin-4-yl}amino)-1-methylpiperidin-2-one]",10 to 100 nM

# — patent US20250179078A1, “INHIBITORS OF NLRP3” (PTC THERAPEUTICS, INC., priority 2022, published 2025)
